Laboratory results published in ChEMBL document CHEMBL1201862, “PubChem BioAssay data set” (2004).
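Tested at 5 concentrations; 48 h exposure; 96-well plates; endpoints linearly interpolated, else capped at highest concentration. GI50 is the concentration that inhibits growth by half.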 Active and inactive are the calls of the source. No stated cut-off is given here; in the data, active = GI50 up to about 1.1 µM and inactive = higher.

How the values were obtained:
Test in all cases: DTP human tumour cell line panel, 48 h
SK-OV-3 = system: SK-OV-3
HCT-116 = system: HCT-116
HL-60 = system: HL-60
A549 = system: A549
SF-295 = system: SF-295
A498 = system: A498
SNB-75 = system: SNB-75
NCI-H23 = system: NCI-H23
HCT-15 = system: HCT-15
KM-20L2 = system: KM-20L2
OVCAR-5 = system: OVCAR-5
RXF 393 = system: RXF 393
CAKI-1 = system: CAKI-1
SW-620 = system: SW-620
Malme-3M = system: Malme-3M
SF-539 = system: SF-539
SK-MEL-28 = system: SK-MEL-28

SMILES	GI50 (SK-OV-3)	GI50 (HCT-116)	GI50 (HL-60)	GI50 (A549)	GI50 (SF-295)	GI50 (A498)	GI50 (SNB-75)	GI50 (NCI-H23)	GI50 (HCT-15) [µM]	GI50 (KM-20L2)	GI50 (OVCAR-5)	GI50 (RXF 393)	GI50 (CAKI-1)	GI50 (SW-620)	GI50 (Malme-3M)	GI50 (SF-539)	GI50 (SK-MEL-28)
O=C(CCN(CCO)CCO)Nc1ccc2c(c1)C(=O)c1ccc(NC(=O)CCN(CCO)CCO)cc1C2=O	14.9 µM (inactive)	7.36 µM (inactive)	9.59 µM (inactive)	44.4 µM (inactive)	> 100 µM (inactive)	9.86 µM (inactive)	30.8 µM (inactive)	38.7 µM (inactive)	6.47	48.4 µM (inactive)	> 100 µM (inactive)	4 µM (inactive)	5.56 µM (inactive)	6.73 µM (inactive)	12.8 µM (inactive)	4.81 µM (inactive)	15.1 µM (inactive)
COC(=O)C(Cc1c[nH]c2ccccc12)NC(=O)C(Cc1c[nH]c2ccccc12)NC(=O)OCc1ccccc1 (stereo not drawn)	19.7 µM (inactive)	17.9 µM (inactive)	20.8 µM (inactive)	17.8 µM (inactive)	17.9 µM (inactive)	72.8 µM (inactive)	21.6 µM (inactive)	17.3 µM (inactive)	17.4	18.2 µM (inactive)	17.6 µM (inactive)	19.5 µM (inactive)	19.9 µM (inactive)	17.5 µM (inactive)	39.6 µM (inactive)	16.7 µM (inactive)	17.7 µM (inactive)
CC12CCC(=O)N1c1ccc([N+](=O)[O-])cc1N2 (stereo not drawn)	> 100 µM (inactive)	> 100 µM (inactive)	92.9 µM (inactive)	> 100 µM (inactive)	> 100 µM (inactive)	> 100 µM (inactive)	> 100 µM (inactive)	> 100 µM (inactive)	> 100	> 100 µM (inactive)	–	> 100 µM (inactive)	–	> 100 µM (inactive)	> 100 µM (inactive)	> 100 µM (inactive)	> 100 µM (inactive)
C=CCN1CCC23c4c5ccc(O)c4OC2C(=NN=C2CCC4(O)C6Cc7ccc(O)c8c7C4(CCN6CC=C)C2O8)CCC3(O)C1C5 (stereo not drawn)	37.5 µM (inactive)	–	> 10 µM (inactive)	21.4 µM (inactive)	20.7 µM (inactive)	20.2 µM (inactive)	17.1 µM (inactive)	> 100 µM (inactive)	35.5	23.3 µM (inactive)	66.5 µM (inactive)	–	44.5 µM (inactive)	21.4 µM (inactive)	19.1 µM (inactive)	18.6 µM (inactive)	17.3 µM (inactive)
COc1ccc2c(C(=O)O)cc3ccccc3c2c1OC	38.5 µM (inactive)	18.6 µM (inactive)	27.1 µM (inactive)	30 µM (inactive)	47 µM (inactive)	18.8 µM (inactive)	28.4 µM (inactive)	22.2 µM (inactive)	–	22.8 µM (inactive)	19.1 µM (inactive)	15.2 µM (inactive)	–	19.4 µM (inactive)	21.9 µM (inactive)	23.7 µM (inactive)	18.5 µM (inactive)
C=CC1=CC(C)C[C@]1(O)C(=O)OC (stereo partly drawn)	> 100 µM (inactive)	< 0.01 µM (active)	< 0.01 µM (active)	< 0.01 µM (active)	< 0.01 µM (active)	< 0.01 µM (active)	< 0.01 µM (active)	< 0.01 µM (active)	> 100	> 100 µM (inactive)	< 0.01 µM (active)	< 0.01 µM (active)	< 0.01 µM (active)	38.5 µM (inactive)	< 0.01 µM (active)	> 100 µM (inactive)	< 0.01 µM (active)
CN/N=C(\C)CC(=O)Nc1cccc(Cl)c1C	> 100 µM (inactive)	> 100 µM (inactive)	> 100 µM (inactive)	> 100 µM (inactive)	> 100 µM (inactive)	> 100 µM (inactive)	> 100 µM (inactive)	> 100 µM (inactive)	> 100	> 100 µM (inactive)	> 100 µM (inactive)	> 100 µM (inactive)	> 100 µM (inactive)	–	> 100 µM (inactive)	> 100 µM (inactive)	> 100 µM (inactive)
COCOCc1cc(OCc2ccccc2)c(OC)cc1Br	–	> 100 µM (inactive)	–	> 100 µM (inactive)	> 100 µM (inactive)	> 100 µM (inactive)	> 100 µM (inactive)	> 100 µM (inactive)	40.9	> 100 µM (inactive)	> 100 µM (inactive)	47.4 µM (inactive)	64.3 µM (inactive)	> 100 µM (inactive)	> 100 µM (inactive)	> 100 µM (inactive)	> 100 µM (inactive)
COc1ccc(C(=O)C(C(=O)CCC(=O)Nc2ccc(Cl)c(Cl)c2)c2ccc(OC)cc2)cc1 (stereo not drawn)	–	> 100 µM (inactive)	97.1 µM (inactive)	> 100 µM (inactive)	> 100 µM (inactive)	> 100 µM (inactive)	44.9 µM (inactive)	> 100 µM (inactive)	> 100	> 100 µM (inactive)	> 100 µM (inactive)	> 100 µM (inactive)	> 100 µM (inactive)	> 100 µM (inactive)	> 100 µM (inactive)	> 100 µM (inactive)	> 100 µM (inactive)
Cc1cc(N)c2cc(NC(=O)CCCCCCCCC(=O)Nc3ccc4nc(C)cc(N)c4c3)ccc2n1	> 68.4 µM (inactive)	5.07 µM (inactive)	1.54 µM (inactive)	6.35 µM (inactive)	43.2 µM (inactive)	29.5 µM (inactive)	32.9 µM (inactive)	15.2 µM (inactive)	> 100	29.1 µM (inactive)	> 56 µM (inactive)	> 65.3 µM (inactive)	> 100 µM (inactive)	27.9 µM (inactive)	25.4 µM (inactive)	16.8 µM (inactive)	42.8 µM (inactive)
CCOC(=O)C1N(S(=O)(=O)c2ccc(C)cc2)CCC12c1ccccc1N(C(C)=O)C2c1ccc(OC)c(OC)c1 (stereo not drawn)	> 100 µM (inactive)	47.4 µM (inactive)	48.1 µM (inactive)	> 100 µM (inactive)	> 100 µM (inactive)	> 100 µM (inactive)	74 µM (inactive)	> 100 µM (inactive)	–	> 100 µM (inactive)	> 100 µM (inactive)	> 100 µM (inactive)	76.7 µM (inactive)	> 100 µM (inactive)	> 100 µM (inactive)	> 100 µM (inactive)	> 100 µM (inactive)
CCOC(=O)C12CCCC1(O)N(NC(=O)OC)C(C)=C2C(=O)OC (stereo not drawn)	> 100 µM (inactive)	> 100 µM (inactive)	> 100 µM (inactive)	> 100 µM (inactive)	> 10 µM (inactive)	> 100 µM (inactive)	–	> 100 µM (inactive)	> 100	> 100 µM (inactive)	> 100 µM (inactive)	–	> 100 µM (inactive)	> 100 µM (inactive)	> 100 µM (inactive)	> 100 µM (inactive)	> 100 µM (inactive)
Cc1nc2c(N)ncnc2o1	> 100 µM (inactive)	> 100 µM (inactive)	> 100 µM (inactive)	> 100 µM (inactive)	> 100 µM (inactive)	> 100 µM (inactive)	> 100 µM (inactive)	> 100 µM (inactive)	> 100	> 100 µM (inactive)	> 100 µM (inactive)	> 100 µM (inactive)	> 100 µM (inactive)	> 100 µM (inactive)	> 100 µM (inactive)	> 100 µM (inactive)	> 100 µM (inactive)
O=[N+]([O-])C(=C(c1ccccc1)c1ccccc1)[N+](=O)[O-]	–	11.9 µM (inactive)	3.32 µM (inactive)	23.1 µM (inactive)	13.5 µM (inactive)	14.8 µM (inactive)	10.2 µM (inactive)	17.4 µM (inactive)	13.8	17.2 µM (inactive)	19.9 µM (inactive)	3.69 µM (inactive)	21.1 µM (inactive)	11.4 µM (inactive)	–	13.6 µM (inactive)	7.98 µM (inactive)
